Source: patent US10106526B2, “Inhibitors of cyclin-dependent kinase 7 (CDK7)” (SYROS PHARMACEUTICALS, INC., priority 2014, dated 2018)

Columns and labels:
A673 cells = experiment: Inhibition of proliferation of A673 cells (CyQUANT, 72 hour); type: cell-based, human; details: 72 hour proliferation
Method: A673 cells are a cell line derived from human muscle Ewing's sarcoma. Representative compounds of the invention were tested at different concentrations (from 4 μM to 126.4 pM; 0.5 log serial dilutions) for their ability to inhibit the proliferation of A673 cells. Known CDK inhibitors flavopiridol and triptolide were used as positive controls. Cells were grown in Dulbecco's Modified Eagle's Medium, +10% FBS+1 mM Sodium Pyruvate. The cells were cultured at 37° C. in a humidified chamber in the presence of 5% CO2. Proliferation assays were conducted over a 72 hour time period. CyQUANT® (Life Technologies, Chicago, Ill. USA) was used to assess the anti-proliferative effects of the compounds following manufacturer's directions and utilizing the reagents supplied with the CyQUANT® kit. In this table, “A” represents an IC50 of less than 500 nM; “B” an IC50 of between 500 nM and 5 μM; and “C” an IC50 of greater than 5 μM.

CDK7 = target: T1, CDK7 (Homo sapiens, UniProt P50613); experiment: CDK7 kinase activity, Adapta kinase assay (Life Technologies); type: biochemical; details: Adapta kinase assay at Life Technologies; 10 μM down to 0.514 nM, 3-fold serial dilutions; read-out: CDK7 Inhibition (IC50)
T1 construct: purchased Life Technologies (Adapta kinase assay service)
T1 sequence (P50613 whole entry): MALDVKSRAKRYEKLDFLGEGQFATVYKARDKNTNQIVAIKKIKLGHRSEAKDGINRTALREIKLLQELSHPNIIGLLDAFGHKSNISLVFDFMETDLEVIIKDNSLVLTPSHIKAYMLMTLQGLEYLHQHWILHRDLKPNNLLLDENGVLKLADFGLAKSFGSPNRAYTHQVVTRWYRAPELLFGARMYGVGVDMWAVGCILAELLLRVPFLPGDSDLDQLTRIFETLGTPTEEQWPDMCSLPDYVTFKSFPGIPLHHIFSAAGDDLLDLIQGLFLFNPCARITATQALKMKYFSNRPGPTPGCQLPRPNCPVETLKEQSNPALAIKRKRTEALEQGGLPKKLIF
T1 sequence (P51946 whole entry partner): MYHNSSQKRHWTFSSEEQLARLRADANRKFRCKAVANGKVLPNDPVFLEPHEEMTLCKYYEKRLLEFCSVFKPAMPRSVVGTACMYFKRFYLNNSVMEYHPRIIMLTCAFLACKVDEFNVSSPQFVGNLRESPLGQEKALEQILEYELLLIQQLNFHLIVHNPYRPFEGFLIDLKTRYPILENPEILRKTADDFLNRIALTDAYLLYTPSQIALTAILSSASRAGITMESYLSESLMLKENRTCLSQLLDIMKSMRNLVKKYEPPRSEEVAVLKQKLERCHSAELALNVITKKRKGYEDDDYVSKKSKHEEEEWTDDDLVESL
T1 sequence (P51948 whole entry partner): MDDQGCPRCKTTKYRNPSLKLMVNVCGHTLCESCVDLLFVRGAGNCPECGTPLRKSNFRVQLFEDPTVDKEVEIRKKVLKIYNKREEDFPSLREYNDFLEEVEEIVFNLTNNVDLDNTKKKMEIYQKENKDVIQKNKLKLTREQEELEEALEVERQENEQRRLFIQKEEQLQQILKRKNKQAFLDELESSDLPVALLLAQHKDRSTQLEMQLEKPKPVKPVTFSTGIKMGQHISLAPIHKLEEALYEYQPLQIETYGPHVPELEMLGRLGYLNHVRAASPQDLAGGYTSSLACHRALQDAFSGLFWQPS
Method: Compounds of the invention were assayed for CDK7 activity at Life Technologies™ (Grand Island, N.Y.) using their commercially available Adapta® kinase assay services. Compounds were tested at concentrations ranging from 10 μM down to 0.514 nM in a series of 3-fold serial dilutions. Details of these assays, including substrates used, are available on the Life Technologies web site (http://www.lifetechnologies.com/us/en/home/life-science/drug-discovery/target-and-lead-identification-and-validation/kinasebiology/kinase-activity-assays.html).

Jurkat cells = experiment: Inhibition of proliferation of Jurkat cells (CellTiter-Glo, 72 hour); type: cell-based, human; details: 10 μM to 316 pM
Method: Jurkat cells are a cell line established from a human T cell leukemia. Representative compounds of the invention were tested at different concentrations (from 10 μM to 316 pM; 0.5 log serial dilutions) for their ability to inhibit the proliferation of Jurkat cells. Known CDK inhibitors flavopiridol and triptolide were used as positive controls. Cells were grown in RPMI 1640+10% FBS+1% Glutamax. The cells were supplemented with FBS (Life Technologies) and 100 U·mL^− penicillin, 100 μg·mL^− streptomycin (Invitrogen) and cultured at 37° C. in a humidified chamber in the presence of 5% CO2. Proliferation assays were conducted over a 72 hour time period. CellTiter-Glo® (Promega Corporation, Madison, Wis. USA) was used to assess the anti-proliferative effects of the compounds following manufacturer's directions and utilizing the reagents supplied with the CellTiter-Glo® kit. In this table, “A” represents an IC50 of less than 500 nM; “B” an IC50 of between 500 nM and 5 μM; and “C” an IC50 of greater than 5 μM.

| IC50 (CDK7) [nM] | IC50 (Jurkat cells; Homo sapiens) [nM] | IC50 (Jurkat cells) [nM] | SMILES | IC50 (A673 cells; Homo sapiens) [nM] | IC50 (A673 cells) [nM] |
| --- | --- | --- | --- | --- | --- |
| < 100 | < 500 | – | C=CC(=O)N1CCN(CC2(O)CCC[C@@H](Nc3ncc(Cl)c(-c4c[nH]c5ccccc45)n3)C2)CC1 (single isomer, unassigned) [Compound 187] | < 500 | – |
| 100 to 1000 | – | 500 to 5000 | C=CC(=O)N1CCC(NC(=O)N2CCC[C@@H](Nc3ncc(Cl)c(-c4c[nH]c5ccccc45)n3)C2)CC1 [Compound 205] | – | < 500 |
| 100 to 1000 | > 5000 | – | O=C(/C=C/CN1CCOCC1)N1CCC(C(=O)N2CC[C@H](Nc3ncc(Cl)c(-c4c[nH]c5ccccc45)n3)C2)CC1 [Compound 211, (S,E)-1-(4-(3-((5-chloro-4-(1H-indol-3-yl)pyrimidin-2-yl)amino)pyrrolidine-1-carbonyl)piperidin-1-yl)-4-morpholinobut-2-en-1-One] | < 500 | – |
| < 100 | 500 to 5000 | – | C=CC(=O)N1CCN(C(=O)N[C@H]2CCC[C@@H](Nc3ncc(Cl)c(-c4c[nH]c5ccccc45)n3)C2)CC1 [Compound 201, 4-Acryloyl-N-((1S,3R)-3-(5-chloro-4-(1H-indol-3-yl)pyrimidin-2-ylamino)cyclohexyl)piperazine-1-carboxamide] | – | – |
| < 100 | < 500 | – | C=CC(=O)N1CCC(CN2CCC(Nc3ncc(Cl)c(-c4c[nH]c5ccccc45)n3)CC2)CC1 [Compound 141, 1-(4-((4-((5-chloro-4-(1H-indol-3-yl)pyrimidin-2-yl)amino)piperidin-1-yl)methyl)piperidin-1-yl)prop-2-en-1-One] | – | – |
| 100 to 1000 | 500 to 5000 | – | C=CC(=O)N1CCC(C(=O)N2CC[C@H](Nc3ncc(Cl)c(-c4c[nH]c5ccccc45)n3)C2)CC1 [Compound 210, (S)-1-(4-(3-((5-chloro-4-(1H-indol-3-yl)pyrimidin-2-yl)amino)pyrrolidine-1-carbonyl)piperidin-1-yl)prop-2-en-1-One] | – | – |
| < 100 | < 500 | – | C=CC(=O)N1CCN(C[C@@H]2CCC[C@H](Nc3ncc(Cl)c(-c4c[nH]c5ccccc45)n3)C2)CC1 [Compound 204, 1-(4-(((1R,3S)-3-((5-chloro-4-(1H-indol-3-yl)pyrimidin-2-yl)amino)cyclohexyl)methyl)-piperazin-1-yl)prop-2-en-1-One] | – | – |
| 100 to 1000 | – | < 500 | C=CC(=O)N1CCN([C@@H]2CCC[C@@H](Nc3ncc(Cl)c(-c4c[nH]c5ccccc45)n3)C2)CC1 [Compound 180] | – | < 500 |
| < 100 | – | 500 to 5000 | CN(C)C/C=C/C(=O)N1CC[C@@H](Nc2ncc(Cl)c(-c3c[nH]c4ccccc34)n2)C1 [Compound 176] | – | – |

More lines, now with the values behind:

| SMILES | IC50 (CDK7) [nM] | IC50 (Jurkat cells; Homo sapiens) [nM] | IC50 (Jurkat cells) [nM] | IC50 (A673 cells; Homo sapiens) [nM] | IC50 (A673 cells) [nM] |
| --- | --- | --- | --- | --- | --- |
| C=CC(=O)N1CCC(CNC2CCC(Nc3ncc(Cl)c(-c4c[nH]c5ccccc45)n3)CC2)CC1 (centres unmarked) [compound 163] | < 100 | – | < 500 | – | < 500 |
| C=CC(=O)N1CCCC(CN(C(=O)C=C)C2CCC(Nc3ncc(Cl)c(-c4c[nH]c5ccccc45)n3)CC2)C1 (centres unmarked) [Compound 191-1, N-[4-[[5-chloro-4-(1H-indol-3-yl)pyrimidin-2-yl]amino]cyclohexyl]-N-[(1-prop-2-enoyl-3-piperidyl)methyl]prop-2-enamide] | < 100 | < 500 | – | 500 to 5000 | – |
| C=CC(=O)NC12CC(C(=O)N[C@H]3CCC[C@@H](Nc4ncc(Cl)c(-c5c[nH]c6ccccc56)n4)C3)(C1)C2 (racemic) [Compound 109, N-[(±)-3-{[5-chloro-4-(1H-indol-3-yl)pyrimidin-2-yl]amino}cyclohexyl]-3-(prop-2-enamido)bicyclo[1.1.1]pentane-1-carboxamide] | > 1000 | < 500 | – | < 500 | – |
| C=CC(=O)N1CCCC(CNC2CCC(Nc3ncc(Cl)c(-c4c[nH]c5ccccc45)n3)CC2)C1 (centres unmarked) [Compound 190, 1-[3-[[[4-[[5-chloro-4-(1H-indol-3-yl)pyrimidin-2-yl]amino]cyclohexyl]amino]methyl]-1-piperidyl]prop-2-en-1-One] | < 100 | 500 to 5000 | – | < 500 | – |
| CN(C)C/C=C/C(=O)NCC(F)(F)C(=O)N[C@H]1CCC[C@@H](Nc2ncc(Cl)c(-c3c[nH]c4ccccc34)n2)C1 [Compound 111, (E)-N-(3-((1S,3R)-3-(5-chloro-4-(1H-indol-3-yl)pyrimidin-2-ylamino)cyclohexlamino)-2,2-difluoro-3-oxopropyl)-4-(dimethylamino)but-2-enamide] | < 100 | < 500 | – | – | – |
| C=CC(=O)N1CCCC(CN(C(=O)C=C)[C@H]2CC[C@@H](Nc3ncc(Cl)c(-c4c[nH]c5ccccc45)n3)CC2)C1 (single isomer, unassigned) [191-2] | > 1000 | – | > 5000 | – | – |
| CN(C)CC=CC(=O)N1CCCC(CNC2CCC(Nc3ncc(Cl)c(-c4c[nH]c5ccccc45)n3)CC2)C1 (racemic) [compound 194] | 100 to 1000 | – | < 500 | – | – |
| C=CC(=O)N1CCC(CNC2CCC(Nc3ncc(Cl)c(-c4c[nH]c5ccccc45)n3)CC2)CC1 (centres unmarked) [compound 184] | 100 to 1000 | – | > 5000 | – | > 5000 |
| CN(C)C/C=C/C(=O)NCCc1cc2ccc(Nc3ncc(Cl)c(-c4c[nH]c5ccccc45)n3)cc2[nH]1 [Compound 175, (E)-N-(2-(6-(5-chloro-4-(1H-indol-3-yl)pyrimidin-2-ylamino)-1H-indol-2-yl)ethyl)-4-(dimethylamino)but-2-enamide] | < 100 | < 500 | – | – | – |
| C=CC(=O)N1CCC(CN(C)[C@H]2CCC[C@@H](Nc3ncc(Cl)c(-c4c[nH]c5ccccc45)n3)C2)CC1 [Compound 167] | < 100 | < 500 | – | < 500 | – |
| O=C(Nc1cccc(Nc2ncc(Cl)c(-c3c[nH]c4ccccc34)n2)c1)C1CCCNC1 (centres unmarked) [compound 1003] | < 100 | – | 500 to 5000 | – | – |
| C=CC(=O)N[C@@H]1CN[C@H](C(=O)N[C@H]2CCC[C@@H](Nc3ncc(Cl)c(-c4c[nH]c5ccccc45)n3)C2)C1 [Compound 153, (2S,4S)-4-acrylamido-N-((1S,3R)-3-(5-chloro-4-(1H-indol-3-yl)pyrimidin-2-ylamino)cyclohexyl)pyrrolidine-2-carboxamide] | < 100 | < 500 | – | < 500 | – |
| CN(C)C/C=C/C(=O)N1CCC[C@H](C(=O)Nc2cccc(Nc3ncc(Cl)c(-c4c[nH]c5ccccc45)n3)c2)C1 [Compound 104, (3S,E)-N-(3-(5-chloro-4-(1H-indol-3-yl)pyrimidin-2-ylamino)phenyl)-1-(4-(dimethylamino)but-2-enoyl)piperidine-3-carboxamide] | < 100 | 500 to 5000 | – | – | – |
| C=CC(=O)N1CCC(O)(CN(C)[C@H]2CCC[C@@H](Nc3ncc(Cl)c(-c4c[nH]c5ccccc45)n3)C2)CC1 [Compound 225] | 100 to 1000 | – | > 5000 | – | – |
| O=C(Nc1cccc(Nc2ncc(Cl)c(-c3c[nH]c4ccccc34)n2)c1)[C@H]1CCCNC1 [Compound 1005, (3S)—N-(3-(5-chloro-4-(1H-indol-3-yl)pyrimidin-2-ylamino)phenyl)piperidine-3-carboxamide] | < 100 | 500 to 5000 | – | – | – |
| CN(C)C/C=C/C(=O)Nc1cnn(CC2(O)CCC(Nc3ncc(Cl)c(-c4c[nH]c5ccccc45)n3)CC2)c1 (centres unmarked) [Compound 114, (E)-N-(1-((4-(5-chloro-4-(1H-indol-3-yl)pyrimidin-2-ylamino)-1-hydroxycyclohexyl)methyl)-1H-pyrazol-4-yl)-4-(dimethylamino)but-2-enamide] | < 100 | > 5000 | – | > 5000 | – |
| C=CC(=O)NCCC(=O)N[C@H]1CCC[C@@H](Nc2ncc(Cl)c(-c3c[nH]c4ccccc34)n2)C1 [Compound 172, N-(3-((1S,3R)-3-(5-chloro-4-(1H-indol-3-yl)pyrimidin-2-ylamino)cyclohexylamino)-3-oxopropyl)acrylamide] | < 100 | < 500 | – | – | – |
| CN(C)C/C=C/C(=O)Nc1ccc(C(=O)Nc2cccc(Nc3ncc(Cl)c(-c4c[nH]c5ccccc45)n3)c2)nc1 [Compound 107, (E)-N-(3-(5-chloro-4-(1H-indol-3-yl)pyrimidin-2-ylamino)phenyl)-5-(4-(dimethylamino)but-2-enamido)picolinamide] | < 100 | 500 to 5000 | – | – | – |
| C=CC(=O)N[C@H]1CCC[C@@H](Nc2ncc(Cl)c(-c3c[nH]c4ccccc34)n2)C1 [Compound 170, N-((1S,3R)-3-(5-chloro-4-(1H-indol-3-yl)pyrimidin-2-ylamino)cyclohexyl)acrylamide] | < 100 | 500 to 5000 | – | – | – |
